Test [1] in a line: Broth DAP test: trained panel rates saltiness of compounds in simple broth. As to conditions: single compound in simple broth; best DAP score of tested concentrations 0.1, 1 and 10 ppm; DAP score greater than 7.6 indicates saltiness or salt enhancement. In kind it is in vivo. Also noted: key: DAP score; >7.6 indicates saltiness or salt enhancement in broth. As to the method: (§1) Briefly, each individual tested compound was placed in water and in sodium solution to test saltiness and saltiness enhancement potential. Tests in water were executed in a compound concentration of 10 ppm. Tests in sodium solution were executed in compound concentrations of 0.1, 1 and 10 ppm. Two control sodium solutions with known organoleptic salt intensities were provided as references for each test. The test for individual compounds was also conducted using simple broth instead of sodium solution. A number of compound combinations identified from the Na-solution DAP test were used for the broth DAP test. Tests were executed with a trained panel of 9-12 assessors. For Na-solution DAP tests, a DAP score of greater than 3.1 indicates saltiness or salt enhancement. The DAP score can be correlated with a sodium reduction potential by subtracting 3.1 from the DAP score. […] For broth DAP tests, a DAP score of greater than 7.6 indicates saltiness or salt enhancement. The DAP score can be correlated with a sodium reduction potential by subtracting 7.6 from the DAP score.

Test [2] in a line: Na-solution DAP test: trained panel rates saltiness of compounds in sodium solution. In kind it is in vivo. More on the design: key: DAP score; >3.1 indicates saltiness or salt enhancement. As to conditions: single compound in sodium solution; best DAP score of tested concentrations 0.1, 1 and 10 ppm; DAP score greater than 3.1 indicates saltiness or salt enhancement. As to the method: as §1

As to `CC1(C)CC2C1CCC1(C)CC2(O)CCC1O` (stereo not shown) [Compound 56, Senecrassidiol], the “DAP in Broth” value in test [1] is on record as 7.7. For the same compound, in test [2], the “DAP in Na-Sol.” value is reported as 4.
For `COc1cc2c(c(OC)c1OC)-c1c(cc(OC)c(OC)c1OC)C[C@H](C)[C@H](C)C2` [Compound 45, Schisandrin A, Deoxyschizandrin] the same measures were 8.2 and 3.5.
For `O=C(/C=C/C=C/c1ccc2c(c1)OCO2)N1CCCCC1` [Compound 18, Piperine] the same measures were 8.1 and 3.8.
Consider `CC(=O)OC1CC(C)C2(CCC3(COC(=O)C3)O2)C2(C)CCCC(C)(C)C12` (stereo not shown) [Compound 30], for which the “DAP in Na-Sol.” value in test [2] amounted to 3.1.
Same read-out and setting: with `COc1cc(O)c(C(/C=C/CC(O)CCc2ccc(O)cc2)c2ccc(O)cc2)c2c1C(=O)CC(c1ccc(O)cc1)O2` (stereo not shown) [Compound 50, Epicalyxin C] the figure was 4.
Regarding `CC1(C)CC[C@]2(C(=O)O)CC[C@]3(C)C(=CCC4[C@@]5(C)C[C@@H](O)[C@H](O)C(C)(C)C5CC[C@]43C)C2C1` (stereo partly shown) [Compound 42, Maslinic acid, Crategolic acid], the “DAP in Broth” value in test [1] came to 8.1. For the same compound, the “DAP in Na-Sol.” value in test [2] is 3.1.
For `COc1cc(CC(C)C(C)Cc2ccc(O)c(OC)c2)ccc1O` (stereo not shown) [Compound 49, Dihydrogualaretic acid] the same measures were 8.2 and 3.6.
For `C/C=C(\C)C(=O)O[C@H]1C[C@@H](OC(C)=O)[C@@]2(C)CO[C@@H]3C2[C@@]1(C)[C@@H](CC(=O)OC)[C@]1(C)C2=C(C)[C@H](c4ccoc4)C[C@H]2O[C@H]31` (stereo partly shown) [Compound 58, Salannin] the same measures were 8.0 and 3.3.
On to `COc1c2c(cc3oc(=O)ccc13)OC(C)(C)C=C2` [Compound 27, Xanthoxyletin], for which the “DAP in Na-Sol.” value in test [2] stood at 3.4.
In the case of `CCCCCCCCC(=O)CCc1ccc(O)c(OC)c1` [Compound 6, [7]-Paradol], the “DAP in Na-Sol.” value in test [2] is listed as 3.8.
On the same count and under the same terms, under `C=C1C(=O)O[C@@H]2C[C@@]3(C)CCCC(=C)[C@@H]3C[C@H]12` [Compound 80b, Isoalantolactone] stands 3.9.
Take `CCC=CC(=O)CCc1ccccc1` [Compound 11, a 1-Ph-4-hepten-3-one]: the “DAP in Broth” value in test [1] amounted to 8.1. Moreover, the “DAP in Na-Sol.” value in test [2] worked out at 2.6.
As for `CCCC(=O)c1c(OC)cc(OC)c(CCO)c1O` [Compound 54], in test [1], the “DAP in Broth” value came to 8.1. For the same compound, the “DAP in Na-Sol.” value in test [2] came to 3.4.
In the case of “a pentadecatrienyl-1,3-benzenediol [Compound 10]”, the “DAP in Broth” value in test [1] is on record as 7.9. For the same compound, the “DAP in Na-Sol.” value in test [2] was found to be 3.9.
In the case of `CC(C)C(=O)c1c2c(c3oc(=O)cc(-c4ccccc4)c3c1O)CC(C(C)(C)O)O2` (stereo not shown) [Compound 60, Mammea A/AD cyclo F], the “DAP in Broth” value in test [1] came to 8.1. Also, the “DAP in Na-Sol.” value in test [2] is on record as 3.8.
In the case of `CCC(O)CC(=O)CCc1ccccc1` (stereo not shown) [Compound 20, a 1-Ph-5-OH-3-heptanone], the “DAP in Na-Sol.” value in test [2] is 4.
In the case of `CCCCCCCCCCNC(C)=O` [Compound 84, N-Decyl acetamide], the “DAP in Broth” value in test [1] came out at 8.1. The “DAP in Na-Sol.” value in test [2] is reported as 3.8.
For `CCCCCCCCCCC[C@H](O)CC(=O)CCc1ccc(O)c(OC)c1` [Compound 1, 12-Gingerol] the same measures were 7.8 and 3.6.
For `O=c1c2ccccc2nc2n1CCc1c-2[nH]c2ccccc12` [Compound 57, Rutaecarpine], the “DAP in Na-Sol.” value in test [2] came to 3.1.
Take `CCCCC/C=C/C=C/C(O)CCCCCCCC(=O)O` (stereo not shown) [Compound 88, Dimorphecolic acid]: the “DAP in Broth” value in test [1] is reported as 8.0. The “DAP in Na-Sol.” value in test [2] is reported as 3.2.
Turning to `COc1c2ccoc2c(OCC=C(C)C)c2oc(=O)ccc12` [Compound 65, Phellopterin], the “DAP in Broth” value in test [1] is listed as 7.9. Further, the “DAP in Na-Sol.” value in test [2] was found to be 3.3.
The like results for `CCCCCC(CC(CCc1ccc(O)c(OC)c1)OC(C)=O)OC(C)=O` (stereo not shown) [Compound 3, [6]-Gingerdiacetate] were, in that order, 8.8 and 4.1.
`COC1CC(OC2CCC3(C=O)C(CCC4C3CCC3(C)C(C5=CC(=O)OC5)CCC43O)C2)OC(C)C1O` (stereo not shown) [Compound 77, Apocannoside]: the “DAP in Broth” value in test [1] came out at 8.1. Moreover, in test [2], the “DAP in Na-Sol.” value came out at 3.4.
With `COc1c2ccoc2cc2oc(=O)ccc12` [Compound 62, Bergapten], in test [1], the “DAP in Broth” value was found to be 8.0. In addition, the “DAP in Na-Sol.” value in test [2] is given as 3.9.
Regarding `C[C@@H]1C[C@@H]2O[C@@]3(O[C@@H]2C(C)(C)O)C(O)[C@@]2(C)C4CCC5C(C)(C)[C@@H](OC6OC[C@H](O)[C@@H](O)[C@@H]6O)CC[C@@]56C[C@@]46CC[C@]2(C)C13` (stereo partly drawn) [Compound 41, Cimigoside; b-D-Xylopyranoside], in test [1], the “DAP in Broth” value was found to be 7.5. In test [2], the “DAP in Na-Sol.” value is on record as 3.9.
`COc1cc(COC(=O)CCCC/C=C/C(C)C)ccc1O` [Compound 13, Capsiate]: the “DAP in Broth” value in test [1] is listed as 7.9. Moreover, the “DAP in Na-Sol.” value in test [2] stood at 3.8.
The like results for `O=C(O)/C=C/c1ccc(O)c2c1C(C(=O)OC(Cc1ccc(O)c(O)c1)C(=O)O)C(c1ccc(O)c(O)c1)O2` (stereo not shown) [Compound 40, a 3-benzofurancarboxylic ester] were, in that order, 7.8 and 3.5.
Take `CCCCC/C=C/C(=O)CCc1ccc(O)c(OC)c1` [Compound 4, 6-Shogaol]: the “DAP in Na-Sol.” value in test [2] was 3.5.
As for `CC(=O)OC1C(O)COC(OC2C(O)C(C)OC(OC(C)(CCC=C(C)C)C3C(O)CC4(C)C3CCC3C5(C)CCC(OC6OCC(O)C(O)C6O)C(C)(C)C5CCC34C)C2O)C1O` (stereo not shown) [Compound 38], the “DAP in Broth” value in test [1] came out at 8.1. The “DAP in Na-Sol.” value in test [2] was determined as 3.9.
`C[C@H]1[C@H](C)CC[C@]2(C(=O)O)CC[C@]3(C)C(=CC[C@@H]4[C@@]5(C)CC[C@H](O)C(C)(C)[C@@H]5CC[C@]43C)[C@H]12` [Compound 43, Ursolic acid]: the “DAP in Broth” value in test [1] is listed as 8.0. For the same compound, in test [2], the “DAP in Na-Sol.” value was 3.7.
For the compound `C=CC(C)(CC/C=C(\C)CC/C=C(\C)CC/C=C(/C)COC1OC(C)C(O)C(OC2OC(COC3OC(C)C(O)C(O)C3OC(=O)/C(C)=C/C(O)C/C(C)=C/CC/C(C)=C/CCC(C)(C=C)OC3OC(CO)C(O)C(O)C3OC3OC(CO)C(O)C(O)C3O)C(O)C(O)C2O)C1O)OC1OC(CO)C(O)C(O)C1OC1OC(CO)C(O)C(O)C1O` (stereo not shown) [Compound 92, Capsianoside D], the “DAP in Na-Sol.” value in test [2] is 4.
Turning to `CCCCCCC[C@H](O)CC(=O)CCc1ccc(O)c(OC)c1` [Compound 9, 8-Gingerol], the “DAP in Na-Sol.” value in test [2] stood at 3.8.
Still for that read-out and setting: with `CCC=CCC=CC=CC(O)CCCCCCCC(=O)O` (stereo not shown) [Compound 85, 9-hydroxy-10,12,15-Octadecatrienoic acid] the figure was 2.9; with `COc1c(CC=C(C)C)c(=O)n(C)c2c(OC)cccc12` [Compound 25, O-Methylglycosolone], 3.9; with `CCCCCC(CC(=O)CCc1ccc(O)c(OC)c1)OC` (stereo not shown) [Compound 8, 5-methoxy-[6]-Gingerol], 4.
Still for that read-out and setting: under `O=C(/C=C/CC/C=C/c1ccc2c(c1)OCO2)N1CCCCC1` [Compound 14, Pipersintenamide] stands 3.6; under `C/C(=C\CC/C(C)=C/CC[C@@H]1[C@@]2(C)CCC(=O)C(C)(C)C2CC[C@@]1(C)O)CC/C=C(\C)C(=O)O` (stereo partly shown) [Compound 52, Myrrhanone B], 3.6; under `C/C=C1\C(=O)CC2C3CCC4=CC(=O)CC[C@]4(C)C3CCC12C` (stereo partly shown) [Compound 75, (Z)-Guggulsterone], 3.6.
Same read-out and setting: with `C=C1C(=O)OC2CC3(C)CCCC(C)C3=CC12` (stereo not shown) [Compound 80a, Alantolactone] the figure was 3.9.
As to `COc1ccc(-c2c(O)c3c(OC)c4c(cc3oc2=O)OC(C)(C)C=C4)cc1` [Compound 26, Robustic acid], in test [2], the “DAP in Na-Sol.” value is 3.4.
`C=CC(C)(CC/C=C(\C)CC/C=C(\C)CC/C=C(/C)COC1OC(C)C(O)C(OC2OC(COC3OC(C)C(O)C(O)C3OC(=O)/C(C)=C/CC/C(C)=C/CC/C(C)=C/CCC(C)(C=C)OC3OC(CO)C(O)C(O)C3OC3OC(CO)C(O)C(O)C3O)C(O)C(O)C2O)C1O)OC1OC(CO)C(O)C(O)C1OC1OC(CO)C(O)C(O)C1O` (stereo not shown) [Compound 91, Capsianoside E]: in test [2], the “DAP in Na-Sol.” value was 3.7.
On the same count and under the same terms, under `COc1cc2oc(=O)ccc2c(OC)c1CC=C(C)C` [Compound 28, Toddaculin] stands 3.6; under `CCCCC[C@H](O)CC(=O)CCc1ccc(O)c(OC)c1` [Compound 5, [6]-Gingerol], 3.6; under `C=C1C2CCC3C4(C)CCCC(C)(C(=O)O)C4CCC3(C2)C1OC(C)=O` (stereo not shown) [Compound 94, Xylopic acid], 4.2.
Consider `COc1cc(CNC(=O)CCCCCCC(C)C)ccc1O` [Compound 21, Dihydrocapsaicin], for which, in test [2], the “DAP in Na-Sol.” value is on record as 4.
For `C[C@@H]1C[C@H]2OC(=O)[C@@]3(C)CCC[C@](C)(C23)[C@@]1(O)CCc1ccoc1` (stereo partly shown) [Compound 31, Marrubin], the “DAP in Na-Sol.” value in test [2] turned out to be 3.2.
Turning to `COc1c(CC=C(C)C)c(=O)[nH]c2ccccc12` [Compound 61, Atanine], in test [2], the “DAP in Na-Sol.” value worked out at 3.6.
The same measure, in the same setting: under `CCCCCCCC(=O)CCc1ccc(O)c(OC)c1` [Compound 7, [6]-Paradol or [6]-Gingerone] stands 3.7.
